According to paper PMC4374931 (PLoS ONE, 2015):
Structures can show the parent of a compound that is named as a salt. Where two headings read alike, the source gives them in different places.

Experiments:
in vitro = type: cell-based; conditions: human
Protocol: (§1) AIZ-AR cells were seeded in 96-well plates at density 5x10^4 cells per well. […] Following the incubation, MTT assay was measured spectrophotometrically at 540 nm using Tecan Infinite M2000 plate luminometer.

AIZ-AR cells = test: in vitro; type: cell-based; conditions: 24 h, MTT
Protocol: as §1

human androgen receptor [1] = target: T1, human androgen receptor (Homo sapiens, UniProt P10275); test: Gene reporter assay in AIZ-AR cells, agonist mode (luciferase); type: cell-based; conditions: for effect on luciferase activity in agonist mode: 24 h
Protocol: (§2) AIZ-AR cells were seeded in 96-well plates at density 5x10^4 cells per well. […] After the treatments, cells were lysed and luciferase activity was measured in 96-well plate format using Tecan Infinite M2000 plate luminometer.
(§3) Dose-response analyses assays were performed in two different experimental layouts. […] Where appropriate, IC50 (half maximal inhibitory concentration) values were calculated.

androgen receptor [2] = target: androgen receptor; set-up: method as in Sedlak et al.; conditions: published data; ref Sedlak et al.; cited from earlier work
androgen receptor [3] = target: androgen receptor; set-up: method as in Wilkinson et al.; conditions: published data; ref Wilkinson et al.; cited from earlier work
human androgen receptor [4] = target: T1, human androgen receptor; test: Gene reporter assay in AIZ-AR cells, antagonist mode with DHT (100 nM); type: cell-based; conditions: antagonist mode, 24 h
Protocol: as §2, §3

human androgen receptor [5] = target: T1, human androgen receptor; test: Gene reporter assay in AIZ-AR cells, antagonist mode with testosterone (10 nM); type: cell-based
Protocol: as §2, §3

[6] = log c -5, 24 h, MTT, read-out: % of viability
[7] = log c -6, 24 h, MTT, read-out: % of viability
[8] = log c -7, 24 h, MTT, read-out: % of viability
[9] = log c -8, 24 h, MTT, read-out: % of viability
[10] = log c -9, 24 h, MTT, read-out: % of viability
[11] = log c -10, 24 h, MTT, read-out: % of viability

T1 sequence (P10275 whole entry): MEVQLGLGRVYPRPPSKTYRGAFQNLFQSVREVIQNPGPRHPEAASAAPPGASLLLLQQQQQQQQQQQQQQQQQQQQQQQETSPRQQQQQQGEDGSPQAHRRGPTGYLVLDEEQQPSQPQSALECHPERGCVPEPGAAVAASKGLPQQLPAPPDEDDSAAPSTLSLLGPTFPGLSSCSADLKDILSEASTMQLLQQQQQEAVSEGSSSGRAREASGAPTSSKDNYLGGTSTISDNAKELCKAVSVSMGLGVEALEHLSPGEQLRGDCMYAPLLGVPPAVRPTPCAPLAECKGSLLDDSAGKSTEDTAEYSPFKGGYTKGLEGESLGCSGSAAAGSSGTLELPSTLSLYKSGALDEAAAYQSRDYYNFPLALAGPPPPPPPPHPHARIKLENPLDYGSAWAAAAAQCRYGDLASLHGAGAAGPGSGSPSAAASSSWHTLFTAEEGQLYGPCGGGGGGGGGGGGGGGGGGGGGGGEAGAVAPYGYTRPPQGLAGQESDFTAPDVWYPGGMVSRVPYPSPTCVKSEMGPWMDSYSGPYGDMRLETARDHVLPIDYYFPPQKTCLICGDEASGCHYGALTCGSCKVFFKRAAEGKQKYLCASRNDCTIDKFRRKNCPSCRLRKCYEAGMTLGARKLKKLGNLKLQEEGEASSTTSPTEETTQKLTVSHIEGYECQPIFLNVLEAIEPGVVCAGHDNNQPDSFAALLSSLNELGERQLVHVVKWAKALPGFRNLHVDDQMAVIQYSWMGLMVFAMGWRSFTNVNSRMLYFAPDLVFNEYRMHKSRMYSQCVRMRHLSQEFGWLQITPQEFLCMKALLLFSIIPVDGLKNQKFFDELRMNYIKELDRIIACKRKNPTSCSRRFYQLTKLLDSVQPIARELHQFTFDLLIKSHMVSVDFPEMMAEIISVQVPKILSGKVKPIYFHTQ

SMILES	viability at 24 h, 0.1 nM (in vitro) [%]	viability at 24 h, 1 nM (in vitro) [%]	viability at 24 h, 10 nM (in vitro) [%]	viability at 24 h, 100 nM (in vitro) [%]	viability at 24 h, 1 μM (in vitro) [%]	viability at 24 h, 10 μM (in vitro) [%]	other results
CC/C(=C(\c1ccccc1)c1ccc(OCCN(C)C)cc1)c1ccccc1 [Tamoxifen citrate, tamoxifen citrate salt]	100	103 ± 4.3	107 ± 4.6	106 ± 3.8	88.5 ± 2.4	1.7 ± 0.8	
C[C@@H]1C[C@H]2[C@@H]3CCC4=CC(=O)C=C[C@]4(C)[C@@]3(F)[C@@H](O)C[C@]2(C)[C@@]1(O)C(=O)CO [Dexamethasone, dexamethasone]	100	99.8 ± 3.9	114 ± 2	112.7 ± 1.1	111 ± 3.4	108 ± 2.6	
CC(=O)[C@H]1CC[C@H]2[C@@H]3CCC4=CC(=O)CC[C@]4(C)[C@H]3CC[C@]12C [Progesterone, progesterone]	100	98.7 ± 7.3	98.7 ± 12.2	99.8 ± 14.1	98.1 ± 13.9	91 ± 9.5	
CC(=O)S[C@@H]1CC2=CC(=O)CC[C@]2(C)[C@H]2CC[C@@]3(C)[C@@H](CC[C@@]34CCC(=O)O4)[C@H]12 [Spironolactone, spironolactone]	100	108 ± 1.5	112 ± 5.7	113 ± 10	98.9 ± 5.5	58.9 ± 2.5	
C[C@H]1C[C@H]2[C@@H]3CCC4=CC(=O)C=C[C@]4(C)[C@@]3(Cl)[C@@H](O)C[C@]2(C)[C@@]1(O)C(=O)CO [Beclomethasone, beclomethasone]							% of viability (AIZ-AR cells; log c -5): 92.3 ± 2.1%; % of viability (AIZ-AR cells; log c -6): 98.4 ± 0.9%; % of viability (AIZ-AR cells; log c -7): 109.2 ± 5.7%; % of viability (AIZ-AR cells; log c -8): 106.5 ± 6.1%; % of viability (AIZ-AR cells; log c -9): 99.9 ± 3.9%
O=C(c1ccc(OCCN2CCCCC2)cc1)c1c(-c2ccc(O)cc2)sc2cc(O)ccc12 [Raloxifene hydrochloride, raloxifene hydrochloride]	100	103 ± 8.5	99.8 ± 4.3	106 ± 6.8	95.9 ± 10.3	7.1 ± 0.2	
C[C@]12CCC(=O)C=C1CC[C@@H]1[C@@H]2[C@@H](O)C[C@@]2(C)[C@H]1CC[C@]2(O)C(=O)CO [Cortisol, cortisol]							potency weaker as compared to androgens (human androgen receptor [1]): 2–3 orders of magnitude; effect on luciferase activity in agonist mode (human androgen receptor [1]): induced luciferase activity; Log EC50 (human androgen receptor [1]; Clone 8, 24 h): -6.35 ± 0.11; Log EC50 (human androgen receptor [1]; Clone 14, 24 h): -6.49 ± 0.04; viability at 24 h, 10 μM (in vitro; [6]): 105 ± 10.4%; viability at 24 h, 1 μM (in vitro; [7]): 107 ± 12.3%; viability at 24 h, 100 nM (in vitro; [8]): 107 ± 13.2%; viability at 24 h, 10 nM (in vitro; [9]): 106 ± 9.1%; viability at 24 h, 1 nM (in vitro; [10]): 109 ± 4.1%; viability at 24 h, 0.1 nM (in vitro; [11]): 100%; Literature Log EC50 (androgen receptor [2]): > -5.00; Literature Log EC50 (androgen receptor [3]): -8.22
C[C@]12CC[C@@H]3c4ccc(O)cc4CC[C@H]3[C@@H]1CC[C@@H]2O [17β-estradiole, estradiol]	100	107 ± 4.3	110 ± 3.2	110 ± 6.2	110 ± 6.2	116 ± 16.4	
CC(=O)[C@H]1CC[C@H]2[C@@H]3CCC4=CC(=O)CC[C@]4(C)[C@H]3CC[C@]12C [17α-progesterone]							% of viability (AIZ-AR cells; log c -5): 92.0 ± 3.7%; % of viability (AIZ-AR cells; log c -6): 92.0 ± 3.7%; % of viability (AIZ-AR cells; log c -7): 95.0 ± 4.0%; % of viability (AIZ-AR cells; log c -8): 95.0 ± 4.0%; % of viability (AIZ-AR cells; log c -9): 98.2 ± 2.6%
C[C@]12CCC(=O)C[C@@H]1CC[C@@H]1[C@@H]2CC[C@]2(C)[C@@H](O)CC[C@@H]12 [5α-dihydrotestosterone]							viability at 24 h, 10 μM (in vitro; [6]): 104 ± 2%; viability at 24 h, 1 μM (in vitro; [7]): 108 ± 2.6%; viability at 24 h, 100 nM (in vitro; [8]): 114 ± 5.7%; viability at 24 h, 10 nM (in vitro; [9]): 109 ± 2.1%; viability at 24 h, 1 nM (in vitro; [10]): 108 ± 4.6%; viability at 24 h, 0.1 nM (in vitro; [11]): 100%
C[C@]12C[C@H](O)[C@H]3[C@@H](CCC4=CC(=O)CC[C@@]43C)[C@@H]1CC[C@@H]2C(=O)CO [Corticosterone, corticosterone]	100	104	107 ± 2.5	111 ± 5.7	109 ± 6.5	105 ± 3.4	
CC(=O)O[C@]1(C(C)=O)CC[C@H]2[C@@H]3C=C(Cl)C4=CC(=O)[C@@H]5C[C@@H]5[C@]4(C)[C@H]3CC[C@@]21C [Cyproterone acetate, cyproterone acetate]	100	105 ± 1.7	105 ± 2	106 ± 5.7	99.4 ± 7.8	89.5 ± 6.6	
CC/C(=C(\c1ccc(O)cc1)c1ccc(OCCN(C)C)cc1)c1ccccc1 [4-hydroxytamoxifen]	100	101.8 ± 1	100 ± 5.4	104 ± 4.4	106 ± 3.8	9.2 ± 7.7	Log EC50 (human androgen receptor [1]; Clone 8, 24 h): > -5.00; Log EC50 (human androgen receptor [1]; Clone 14, 24 h): > -5.00; Log IC50 (DHT 100nM) (human androgen receptor [4]; Clone 8): > -5.00; Log IC50 (DHT 100nM) (human androgen receptor [4]; Clone 14): > -5.00; Log IC50 (Testosterone 10 nM) (human androgen receptor [5]; Clone 8, 24 h): > -5.00; Log IC50 (Testosterone 10 nM) (human androgen receptor [5]; Clone 14, 24 h): > -5.00; Literature Log EC50 (androgen receptor [2]): > -5.00; Literature Log EC50 (androgen receptor [3]): > -5.00
C#C[C@]1(O)CC[C@H]2[C@@H]3CCC4=Cc5oncc5C[C@]4(C)[C@H]3CC[C@@]21C [Danazol]	100	106 ± 1.5	108 ± 6.9	109 ± 10.6	108 ± 11.6	114 ± 12.1	
CC/C(=C(/CC)c1ccc(O)cc1)c1ccc(O)cc1 [Diethylstilbestrol, diethylstilbestrol]	100	101 ± 5.1	102 ± 7.6	102 ± 5.1	98 ± 4.3	99.9 ± 7	
C[C@]12C=CC(=O)C=C1CC[C@@H]1[C@@H]2[C@@H](O)C[C@@]2(C)[C@H]1CC[C@]2(O)C(=O)CO [Prednisolone, prednisolone]	100	100.7 ± 0.8	104 ± 3.7	107 ± 5.2	104 ± 5.2	101 ± 8.3	
C[C@H]1C[C@@H]2[C@H]([C@@H](O)C[C@@]3(C)[C@H]2CC[C@]3(O)C(=O)CO)[C@@]2(C)C=CC(=O)C=C12 [Methyl-prednisolone, methylprednisolone]	100	107 ± 3.1	111 ± 9.4	105 ± 8.9	105 ± 14.3	105 ± 16	Log EC50 (human androgen receptor [1]; Clone 8, 24 h): -7.60 ± 0.43; Log EC50 (human androgen receptor [1]; Clone 14, 24 h): -7.48 ± 0.30; Literature Log EC50 (androgen receptor [3]): -8.75
C[C@H]1C[C@H]2[C@@H]3CCC4=CC(=O)C=C[C@]4(C)[C@@]3(F)[C@@H](O)C[C@]2(C)[C@@]1(O)C(=O)CO [Betamethasone, betamethasone]	100	105 ± 4	110 ± 7.3	109 ± 7.9	108 ± 14.6	101 ± 9.9	
C[C@]12CC[C@H]3[C@@H](CCC4=CC(=O)CC[C@@]43C)[C@@H]1CC[C@@H]2O [Testosterone, testosterone]							viability at 24 h, 10 μM (in vitro; [6]): 105.3 ± 1%; viability at 24 h, 1 μM (in vitro; [7]): 105 ± 6.9%; viability at 24 h, 100 nM (in vitro; [8]): 103 ± 5.6%; viability at 24 h, 10 nM (in vitro; [9]): 108 ± 4.8%; viability at 24 h, 1 nM (in vitro; [10]): 108.6 ± 1%; viability at 24 h, 0.1 nM (in vitro; [11]): 100%
C[C@]12C=CC(=O)C=C1CC[C@H]1[C@@H]3C[C@@H](O)[C@](O)(C(=O)CO)[C@@]3(C)C[C@H](O)[C@@]12F [Triamcinolone, triamcinolone]	100	101 ± 4.2	100 ± 8.2	105 ± 11.4	103 ± 11	101 ± 5.4	
C[C@]12CCC(=O)C=C1CC[C@@H]1[C@@H]2[C@@H](O)C[C@]2(C=O)[C@@H](C(=O)CO)CC[C@@H]12 [Aldosterone, aldosterone]							effect on luciferase activity in agonist mode (human androgen receptor [1]): did not significantly increased luciferase activity; Log EC50 (human androgen receptor [1]; Clone 8, 24 h): -6.03 ± 0.04; Log EC50 (human androgen receptor [1]; Clone 14, 24 h): -6.11 ± 0.02; viability at 24 h, 10 μM (in vitro; [6]): 97 ± 5.4%; viability at 24 h, 1 μM (in vitro; [7]): 98.6 ± 0.8%; viability at 24 h, 100 nM (in vitro; [8]): 99 ± 1.4%; viability at 24 h, 10 nM (in vitro; [9]): 99.4 ± 1%; viability at 24 h, 1 nM (in vitro; [10]): 110 ± 1.4%; viability at 24 h, 0.1 nM (in vitro; [11]): 100%; Literature Log EC50 (androgen receptor [2]): > -5.00; Literature Log EC50 (androgen receptor [3]): > -5.00
CC#C[C@]1(O)CC[C@H]2[C@@H]3CCC4=CC(=O)CCC4=C3[C@@H](c3ccc(N(C)C)cc3)C[C@@]21C [Mifepristone, mifepristone]	100	104 ± 2.8	102 ± 9.7	104 ± 18.2	94.7 ± 9.5	41.7 ± 1.1	
